Consider six molecules from article PMC7796287, “Phloroglucinol Derivatives from Dryopteris crassirhizoma as Potent Xanthine Oxidase Inhibitors” (Molecules, 2020).

SMILES strings stand for the structures. Read-outs that look alike come from different tables or passages of the source.

For series [1], the target named is T1, xanthine oxidase (XO) (Bos taurus, UniProt P80457).
T1 construct: 20 µL of 0.1 unit XO enzyme (bovine milk) in buffer; from tissue; host or cells: bovine milk
The series is described as follows: Assay of XO-inhibitory activity and kinetics (oxidation of xanthine to uric acid, absorbance at 295 nm). It counts as biochemical, bovine milk. The note with it: for Xanthine Oxidase Kinetic Mode / Ki: Lineweaver–Burk and Dixon plots; for Ki: read-out: Xanthine Oxidase Ki (inhibition constant); for IC50: isolated compounds and positive controls, substrate xanthine, pH 7.5, 37 °C; for inhibition at 25 µM: read-out: Xanthine Oxidase Inhibition %. How it is done: The extracts from four different polar solvents (EtOAc, MeOH, 50% MeOH, and H2O) were tested for their enzyme-inhibitory activities against XO. The enzyme assay followed the oxidation of xanthine to uric acid at 295 nm spectrophotometrically. […] In addition to ^13C-NMR data, various spectroscopic data were used to identify the structures. […]
XO-inhibitory activity was assayed spectrophotometrically on a SpectraMax M2 microplate reader, using a previously reported experimental procedure with a slight modification. First, 135 µL of 100 mM sodium pyrophosphate buffer (HCl, pH 7.5), 20 µL of 0.1 unit XO enzyme (bovine milk) in buffer, and 5 µL of samples (test extracts or compounds) in dimethylsulfoxide were mixed at 37 °C. The reaction was started by adding 40 µL of substrate (0.5 mM xanthine) in buffer to the mixture. The reaction mixture (200 µL) was incubated at 37 °C in a 300 µL well plate and the UV absorbance at 295 nm was determined every 1 min up to 5 min.

T1 sequence (P80457 whole entry): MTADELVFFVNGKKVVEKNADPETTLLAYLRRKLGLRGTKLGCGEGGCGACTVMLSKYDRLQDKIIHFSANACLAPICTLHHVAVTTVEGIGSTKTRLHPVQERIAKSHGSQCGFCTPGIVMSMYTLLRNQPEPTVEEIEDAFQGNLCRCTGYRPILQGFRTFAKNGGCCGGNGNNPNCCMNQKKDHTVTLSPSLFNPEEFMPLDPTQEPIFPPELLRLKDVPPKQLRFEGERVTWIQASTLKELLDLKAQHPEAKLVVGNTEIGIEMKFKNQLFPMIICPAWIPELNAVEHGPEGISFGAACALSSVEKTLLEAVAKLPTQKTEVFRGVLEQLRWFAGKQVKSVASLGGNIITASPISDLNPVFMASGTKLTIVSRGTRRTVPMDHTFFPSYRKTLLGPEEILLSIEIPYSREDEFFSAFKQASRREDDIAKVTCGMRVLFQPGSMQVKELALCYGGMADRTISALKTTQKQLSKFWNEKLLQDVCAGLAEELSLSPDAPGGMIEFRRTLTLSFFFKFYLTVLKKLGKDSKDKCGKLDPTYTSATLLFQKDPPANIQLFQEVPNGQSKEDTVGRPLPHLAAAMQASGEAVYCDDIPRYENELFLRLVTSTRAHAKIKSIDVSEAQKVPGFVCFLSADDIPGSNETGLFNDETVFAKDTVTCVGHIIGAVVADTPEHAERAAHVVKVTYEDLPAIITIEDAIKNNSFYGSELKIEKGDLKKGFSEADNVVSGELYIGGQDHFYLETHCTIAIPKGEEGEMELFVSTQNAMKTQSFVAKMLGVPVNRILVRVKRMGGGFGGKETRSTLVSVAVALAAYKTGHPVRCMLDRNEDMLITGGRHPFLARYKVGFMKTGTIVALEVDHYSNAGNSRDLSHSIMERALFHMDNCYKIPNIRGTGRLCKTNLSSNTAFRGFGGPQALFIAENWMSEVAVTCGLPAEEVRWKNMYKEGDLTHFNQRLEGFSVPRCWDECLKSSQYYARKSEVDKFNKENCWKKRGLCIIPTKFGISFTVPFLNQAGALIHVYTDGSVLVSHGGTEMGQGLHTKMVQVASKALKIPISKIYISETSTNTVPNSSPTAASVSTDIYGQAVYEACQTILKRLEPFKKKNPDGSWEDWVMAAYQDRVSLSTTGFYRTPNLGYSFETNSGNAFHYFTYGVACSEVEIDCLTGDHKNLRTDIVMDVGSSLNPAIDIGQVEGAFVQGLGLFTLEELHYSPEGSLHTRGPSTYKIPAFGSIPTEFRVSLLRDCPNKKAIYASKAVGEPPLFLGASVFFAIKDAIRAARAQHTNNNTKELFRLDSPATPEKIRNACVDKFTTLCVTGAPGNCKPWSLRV

As for `CCCC(=O)c1c(O)c(C)c(O)c(CC2=C(O)C(C)(C)C(O)=C(C(=O)CC)C2=O)c1O` [Compound 3, flavaspidic acid PB], the melting point (usually the temperature of the solid-liquid transition) fell in the range of 156 to 158 °C. In series [1], the “Xanthine Oxidase Kinetic Mode” value is recorded as “Noncompetitive”; the inhibition constant (Ki) (commonly a dissociation constant, usually derived from enzyme kinetics or from competition with a known ligand) is 15.3 µM; 13.2 ± 0.6 µM corresponded to half-maximal inhibition (IC50). Also, the inhibition (usually the share of the control response that was lost under treatment) at 25 µM in series [1] (sample concentration 25 µM) was found to be 62.1 ± 0.9%.

`CCCC(=O)c1c(O)c(C)c(O)c(CC2=C(O)C(C)(C)C(O)=C(C(C)=O)C2=O)c1O` [Compound 2, flavaspidic acid AB] registered a melting point of 158 to 160 °C. Further, in series [1], the “Xanthine Oxidase Kinetic Mode” value was “Noncompetitive”, the inhibitory constant (Ki) worked out at 11.7 µM and 10.2 ± 0.5 µM corresponded to half-maximal inhibition (IC50). In series [1] (sample concentration 25 µM), the inhibition at 25 µM was 68.1 ± 1.3%.

Consider `CCC(=O)c1c(O)c(C)c(O)c(CC2=C(O)C(C)(C)C(O)=C(C(C)=O)C2=O)c1O` [Compound 1, flavaspidic acid AP], for which, in series [1], the “Xanthine Oxidase Kinetic Mode” value was “noncompetitive inhibitor”; the Ki is 7.8 µM; the IC50 (in general, the midpoint of a concentration-inhibition curve) came out at 6.3 ± 0.4 µM. Besides, in series [1] (XO inhibition, compared with 4 (IC50 = 20.9 µM)), the “efficacy of 1 relative to 4 (fold, from IC50)” value is given as roughly 4 fold. In addition, the “Reversibility of XO inhibition” value in series [1] (activity versus enzyme concentration (0-0.2 units/mL) at different inhibitor concentrations) is recorded as “reversible inhibitor”. The inhibition at 25 µM in series [1] (sample concentration 25 µM) was 79.6 ± 1.6%.

As for `Oc1ncnc2[nH]ncc12` [Allopurinol, reference compound], in series [1], the “Xanthine Oxidase Kinetic Mode” value is “Competitive” and the inhibition at 25 µM amounted to 82.5 ± 1.7%.

Regarding `CCCC(=O)C1=C(O)C(C)(C)C(O)=C(Cc2c(O)c(C)c(O)c(C(=O)CCC)c2O)C1=O` [Compound 4, 2-butyryl-6-(3-butyryl-2,4,6-trihydroxy-5-methylbenzyl)-3,5-dihydroxy-4,4-dimethylcyclohexa-2,5-dienone], in series [1], the “Xanthine Oxidase Kinetic Mode” value is “Noncompetitive”, the Ki turned out to be 21.1 µM and it took 20.9 ± 0.9 µM to reach half-maximal inhibition (IC50). Further, in series [1] (sample concentration 25 µM), the inhibition at 25 µM came to 54.4 ± 1.5%.

The molecule `O=c1[nH]c(=O)c2c[nH]nc2[nH]1` [Oxypurinol, reference compound] came in with an IC50 in series [1] of 43.1 ± 0.8 µM. Further, in series [1] (sample concentration 25 µM), the inhibition at 25 µM stood at 42.2 ± 1.2%.
